Where two headings read alike, the source gives them in different places.
Legend:
[1] = tested on: Desulfovibrio desulfuricans API-SW2; assay: Minimal inhibitory concentration against anaerobic bacteria; conditions: for Minimal Inhibitory Concentration: 24 hours at 37° C.
C. albicans [2] = assay: Vaginal candida infection in rats, oral or topical treatment; type: in vivo
Description: Effect of oral or topical administration of HC274 and ketoconazole on vaginal candida infection in rats. Clearance of C. albicans from rat vagina following oral or topical treatment (as percentage of control).
Topical treatment: 1% solution in polyethylene glycol administrated twice daily for 3 days.
Oral treatment: Once daily for 3 days.

C. sporogenes ATCC 19404 = assay: Antianaerobic activity, MIC by standard broth dilution method (Table II); type: cell-based; conditions: Clostridium sporogenes, ATCC19404, 24 h, read-out: Minimal Inhibitory Concentration (MIC)
Procedure, shortened: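 Minimum inhibitory concentration determined by standard broth dilution against a single Clostridium sporogenes strain under anaerobic test conditions.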

[3] = tested on: Desulfovibrio desulfuricans API-CORE; assay: Minimal inhibitory concentration against anaerobic bacteria; conditions: 24 h
C. albicans [4] = assay: Recovery of viable candida cells from the kidneys of infected mice (p.o. and i.v. treatment); type: in vivo; conditions: 25 mg/kg 1 h and 24 h after infection
Protocol: Mice receive 25×10^4 cells of C. albicans i.v. Treatments (25 mg/kg) administered in PEG/Dextrose 1 h and 24 h after infection. Animals sacrified 48 h after infection and kidneys excised, weighed, homogenized and decimal dilutions spread on glucose-peptone agar.

candida = assay: Intravenous administration: recovery of viable candida cells from the kidneys of infected mice; type: in vivo; conditions: 25 mg/ml
pseudomonas aeruginosa = assay: Anti-bacterial activity, zone diameter; type: cell-based; conditions: 50 μg; pseudomonas aeruginosa; read-out: Zone diameter given by 50 μg of drug
Description: (§1) The anti-bacterial activity of the compound HC274 according to the present invention was also compared with the activity of known anti-bacterial agents with the following results: […]

Nocardia brasiliensis = assay: Anti-bacterial activity, zone diameter; type: cell-based; conditions: 50 μg, read-out: Zone diameter given by 50 μg of drug
Description: as §1

in vivo = conditions: male mice, 7 day
[5] = tested on: Clostridium sporogenes ATCC 19404; assay: Minimal inhibitory concentration against anaerobic bacteria; type: cell-based; conditions: ATCC19404, 24 h

With `Cl.Clc1ccc(/C(Cn2ccnc2)=N\Nc2ccc(Cl)cc2Cl)cc1` [HC274, (E)-1-(4-chlorophenyl)-2-(1H-imidazol-1-yl)ethanone, 2,4-dichlorophenylhydrazone, hydrochloride] the MIC ([1]; Desulfovibrio desulfuricans, APISW2, 24 h, read-out: Minimal Inhibitory Concentration) was 1 mg/L, the “Minimal Inhibitory Concentration” value ([1]; Test 2) was 1.0 mg/L and the “Minimal Inhibitory Concentration” value ([1]; Test 3) was 1.0 mg/L. The “Clearance of C. albicans from rat vagina (as percentage of control)” value (“Clearance … (as percentage of control)” below) (C. albicans [2]; oral, 10 mg/kg once daily for 3 days) was 94.3 percentage of control, the “Clearance … (as percentage of control)” value (C. albicans [2]; oral, 20 mg/kg once daily for 3 days) was 91.3 percentage of control and the “Clearance … (as percentage of control)” value (C. albicans [2]; topical, 1% solution in polyethylene glycol twice daily for 3 days) was 95.5 percentage of control. The MIC (C. sporogenes ATCC 19404; Test 1) was 2.5 mg/L, the MIC (C. sporogenes ATCC 19404; Test 2) was 2.5 mg/L and the MIC (C. sporogenes ATCC 19404; Test 3) was 7.5 mg/L. For the same molecule, the MIC ([3]; read-out: Minimal Inhibitory Concentration, Test 1, 24 hours at 37° C.) was 0.75 mg/L, the MIC ([3]; read-out: Minimal Inhibitory Concentration, Test 2, 24 hours at 37° C.) was 1 mg/L and the MIC ([3]; read-out: Minimal Inhibitory Concentration, Test 3, 24 hours at 37° C.) was 1 mg/L. For the same molecule, the “No. of CFU/g kidney at 48 h” value (C. albicans [4]; i.v.) was 9 × 10^2 CFU/g kidney, the “No. of CFU/g kidney at 48 h” value (C. albicans [4]; p.o.) was 3.3 × 10^3 CFU/g kidney and the CFU/g kidney (candida) was 7.7 × 10^3 CFU/g kidney. For the same molecule, the “CFU/g kidney, % of control” value (candida) was 52 % of control, the zone of inhibition at 50 µg/disc (pseudomonas aeruginosa) was 0 mm and the zone of inhibition at 50 µg/disc (Nocardia brasiliensis) was 12 mm. It also gave an LD50 at 168 h (in vivo; mouse, in vivo, iv, read-out: LD50) of 85 mg/kg, an LD12.5 (in vivo; p.o.) of 440 mg/kg and an MIC ([5]; Test 1, 24 hours at 37° C.) of 2.5 mg/L. The MIC ([5]; Test 2, 24 hours at 37° C.) was 2.5 mg/L and the MIC ([5]; Test 3, 24 hours at 37° C.) was 7.5 mg/L.
